Assay results published in patent US20140335203A1, “SYNERGISTIC BLENDS OF ANTIMICROBIALS USEFUL FOR CONTROLLING MICROORGANISMS IN INDUSTRIAL PROCESSES” (Hercules Incorporated, priority 2013, published 2014).
Where “and” joins values, the source holds several entries; their conditions need not be identical. Equal entries are not always repeated. Where two headings read alike, the source gives them in different places.

Assays:
Lactobacillus plantarum [1] = assay: Minimal Inhibitory Concentration (MIC), two-fold dilution series in 96 well microplate, antimicrobial used alone; format: cell-based; conditions: pH 6; for MIC: Lactiplantibacillus plantarum
Text: While there are various methods known to individuals skilled in the art for measuring levels of antimicrobial activity, in the following examples the endpoint used is known as the Minimal Inhibitory Concentration, or MIC. This is the lowest concentration of a substance or substances which can achieve complete inhibition of growth.
In order to determine the Minimal Inhibitory Concentration, a two-fold dilution series of the antimicrobial is constructed with the dilutions being made in growth media. The dilutions are made in a 96 well microplate such that each well has a final volume of 280 μl of media and antimicrobial. […] After the dilution series is constructed the wells receive an inoculum of microbe suspended in growth media such that the final concentration of microbes in the well is ˜5×10^5 cfu/ml. In these examples the test microbe used is Lactobacillus plantarum. The cultures are incubated at an appropriate temperature for 18-24 hours, and the wells scored as positive or negative for growth based on a visual examination for turbid wells. A turbid well indicates growth has occurred.
Minimal inhibitory concentrations were determined for both chlorine dioxide and citric acid at pH 6 using the protocol described above with Lactobacillus plantarum as the test microbe. Checkerboard synergy plates were constructed as described, the wells inoculated to a final concentration of ˜5×10^5 cfu/ml, incubated for 18-24 hours, and then scored visually for growth/no growth. […] Minimal inhibitory concentrations were determined for both chlorine dioxide and sodium propionate at pH 6 using the protocol described above with Lactobacillus plantarum as the test microbe. Checkerboard synergy plates wore constructed as described, the wells inoculated to a final concentration of ˜5×10^5 cfu/ml, incubated for 18-24 hours, and then scored visually for growth/no growth.
Minimal inhibitory concentrations were determined for both chlorine dioxide and potassium benzoate at pH 6 using the protocol described above with Lactobacillus plantarum as the test microbe. Checkerboard synergy plates were constructed as described, the wells inoculated to a final concentration of ˜5×10^5 cfu/ml, incubated for 18-24 hours, and then scored visually for growth/no growth.
Minimal inhibitory concentrations were determined for both chlorine dioxide and ascorbic acid at pH 6 using the protocol described above with Lactobacillus plantarum as the test microbe. Checkerboard synergy plates were constructed as described, the wells inoculated to a final concentration of ˜5×10^5 cfu/ml, incubated for 18-24 hours, and then scored visually for growth/no growth.

Lactobacillus plantarum [2] = assay: Checkerboard synergy plates (MIC in combination, Synergy Index by Kull et al.); format: cell-based; conditions: pH 6
Method: Minimal inhibitory concentrations were determined for both chlorine dioxide and citric acid at pH 6 using the protocol described above with Lactobacillus plantarum as the test microbe. Checkerboard synergy plates were constructed as described, the wells inoculated to a final concentration of ˜5×10^5 cfu/ml, incubated for 18-24 hours, and then scored visually for growth/no growth. […] Minimal inhibitory concentrations were determined for both chlorine dioxide and sodium propionate at pH 6 using the protocol described above with Lactobacillus plantarum as the test microbe. Checkerboard synergy plates wore constructed as described, the wells inoculated to a final concentration of ˜5×10^5 cfu/ml, incubated for 18-24 hours, and then scored visually for growth/no growth. […] Minimal inhibitory concentrations were determined for both chlorine dioxide and potassium benzoate at pH 6 using the protocol described above with Lactobacillus plantarum as the test microbe. Checkerboard synergy plates were constructed as described, the wells inoculated to a final concentration of ˜5×10^5 cfu/ml, incubated for 18-24 hours, and then scored visually for growth/no growth. […] Minimal inhibitory concentrations were determined for both chlorine dioxide and ascorbic acid at pH 6 using the protocol described above with Lactobacillus plantarum as the test microbe. […]

fermentation = conditions: cited from earlier work
Weisella confusa = conditions: cited from earlier work

Question: With `O=C1O[C@H]([C@@H](O)CO)C(O)=C1O` [Ascorbic Acid, ascorbic acid] as the compound, how does the MIC (Lactobacillus plantarum [1]; read-out: Ascorbic Acid MIC (QB), used alone) read?
Answer: 10 mg/mL

Question: What does the source list for `O=C(O)CC(O)(CC(=O)O)C(=O)O` [Citric Acid, citric acid]?
Answer: MIC (Lactobacillus plantarum [1]; read-out: Citric Acid MIC (QB), used alone): 100 mg/mL; Citric Acid MIC (QB), used alone (Lactobacillus plantarum [1]): 100000 ppm; Citric Acid MIC (Qb), used in combination (Lactobacillus plantarum [2]; in combination with ClO2): 390-12,500 ppm

Question: For `[O][Cl+][O-]` [ClO2, chlorine dioxide], which “ClO2 MIC (QA), used alone” value (Lactobacillus plantarum [1]; Table 1 (citric acid series)) is on record?
Answer: 100 ppm

Question: What about the “ClO2 MIC (QA), used alone” value (Lactobacillus plantarum [1]; Table 2 (sodium propionate series)) of the same compound?
Answer: 115 ppm

Question: What about the “ClO2 MIC (QA), used alone” value (Lactobacillus plantarum [1]; Table 3 (potassium benzoate series)) of the same compound?
Answer: 115 ppm and 130 ppm

Question: What about the “ClO2 MIC (QA), used alone” value (Lactobacillus plantarum [1]; Table 3 (potassium benzoate series), listed as chlorine dioxide) of the same compound?
Answer: 115 ppm and 130 ppm

Question: And the “ClO2 MIC (QA), used alone” value (Lactobacillus plantarum [1]; Table 4 (ascorbic acid series))?
Answer: 67.5 ppm

Question: And the “ClO2 MIC (Qa), used in combination” value (Lactobacillus plantarum [2]; in combination with citric acid)?
Answer: 15-60 ppm

Question: With `O=C([O-])c1ccccc1.[K+]` [Potassium Benzoate, potassium benzoate] as the compound, how does the “Potassium Benzoate MIC (QB), used alone” value (Lactobacillus plantarum [1]) read?
Answer: 100000 ppm

Question: What about the “Potassium Benzoate MIC (QB), used alone” value (Lactobacillus plantarum [1]; listed as potassium benzoate) of the same compound?
Answer: 100,000 ppm

Question: For `CCC(=O)[O-].[Na+]` [Sodium Propionate, sodium propionate], which “Sodium Propionate MIC (QB), used alone” value (Lactobacillus plantarum [1]) is on record?
Answer: 100000 ppm

Question: What about the “Sodium Propionate MIC (QB), used alone” value (Lactobacillus plantarum [1]; listed as sodium propionate) of the same compound?
Answer: 100,000 ppm

Question: With Virginiamycin as the compound, how does the “concentration that will suppress fermentation” value (fermentation) read?
Answer: over 2 mg/L

Question: And the “concentration required to inhibit growth of Weisella confusa” value (Weisella confusa)?
Answer: over 25 mg/L
